In patent publication US6841537B1, “Combination therapy using nucleic acids and conventional drugs” (Protiva Biotherapeutics Inc., priority 1998, dated 2005):

What was measured:
[1] = system: HeLa-luc cells; experiment: Effect of aphidicolin on constitutive CMV driven luciferase gene expression; assay type: cell-based, human; details: 0, 6 and 24 hours after arrest vs untreated control cells
Procedure: SK-OV-3 cells (human ovarian tumor cells, ATCC) were cultured in RPMI 1640 media (StemCell Technologies, Vancouver, B.C.) supplemented with 10% fetal bovine serum (Intergen). HeLa-luc cells were stably transfected with a luciferase reporter plasmid and cultured in Dulbecco's modified Eagle medium (StemCell Technologies, Vancouver, B.C.) supplemented with 10% fetal bovine serum and 400 μg/mL Geneticin (Gibco BRL). […]
(§1) Luciferase assays were performed using the Luciferase Assay System kit (Promega, Madison, Wis.) according to the manufacturer's protocol. […] A standard curve was determined by assaying 20 μL of serial dilutions of a 1 mg/mL luciferase standard (Boehringer Mannheim). […] Absorbance was monitored at 570 nm (Dynatech MR5000 plate reader) and protein content calculated using a standard curve of varying concentrations of BSA.
To determine the effect of aphidicolin-mediated cell cycle arrest on the transcriptional and translational machinery of the cell, a clonal HeLa cell line stably transfected with a CMV driven luciferase expression cassette (Song, Inex Pharmaceuticals, unpublished) was analyzed. […]

[2] = system: SK-OV-3 cells; experiment: Lipid mediated transfection (luciferase activity) in aphidicolin treated cells; assay type: cell-based, human
Procedure: Lipoplexes were prepared as follows: All reagents were sterile and cooled to 4° C. prior to complex preparation. A solution containing 62 μM dioleoyldimethylammonium chloride:1,2-sn-dioleoylphosphatidylethanolamine (DODAC:DOPE) large unilamellar vesicles (LUVs) and a solution containing 10 μg/mL plasmid DNA were prepared in distilled water. The DNA was added to an equal volume of lipid dropwise, while vortexing. The solution was incubated on ice for 30 minutes prior to transfection. The resulting lipoplexes contained a final DNA concentration of 0.5 μg/100 μL and the cationic lipid:DNA (+:−) charge ratio was 1:1.
Plasmid containing a therapeutic gene was encapsulated as SPLP using the detergent dialysis method of INEX 351. […]
as §1
An initial experiment was performed to determine whether lipid mediated transfection was affected by the cell cycle status of SK-OV-3 cells in vitro. […] Luciferase activity was measured after 24 hrs of continuous exposure to lipoplexes. […]

[3] = system: SK-OV-3 cells; experiment: Cell cycle arrest by aphidicolin, propidium iodide staining and flow cytometry; assay type: cell-based, human; details: (+/−) culture
Procedure: (§2) SK-OV-3 or HeLa-luc cells were seeded at a density of 30,000 cells per well in a 24 well plate in growth media 24 hours prior to treatment with aphidicolin. Aphidicolin (Sigma) was reconstituted in phosphate buffered saline containing 0.5% DMSO. Cells were incubated with aphidicolin at a final concentration of 5 μg/mL in 1 mL of media per well for 16 hours prior to transfection. Transfection was accomplished by the addition of 0.5 μg of formulated DNA to each well.
The cell cycle status of cultures was determined by flow cytometry of permeabilized cells that were stained with propidium iodide. Prior to harvesting, media was aspirated and the cells were washed twice with 2 mL phosphate buffered saline (PBS). […] 5,000 cells were analyzed in the FL2 channel (λemission=585+/−21 nm) of a FACSort flow cytometer (Becton-Dickinson, San Jose, Calif.) equipped with an Ar- ion laser (λexcitation=488 nm)
In an initial study, the effectiveness of a non-lethal concentration of aphidicholin to arrest SK-OV-3 cells was determined. A sub-confluent asynchronous cell culture contained approx. 75%, 5% and 20% of cells in G1, S and M phase, respectively, as measured by staining with propidium iodide (PI) followed by flow cytometry (FIG. 1(A)). […]

[4] = system: SK-OV-3 cells; experiment: Uptake of YOYO-1 labeled plasmid DNA lipoplexes by flow cytometry; assay type: cell-based, human; details: aphidicolin arrested vs control cells
Procedure: as §2, with “well. […]” for “well.”
Lipoplexes were prepared using YOYO-1 labeled DNA and incubated with cells. […] Fluorescence was measured in the FL1 channel (λemission=530+/−15 nm) of a FACSort flow cytometer (Becton-Dickinson, San Jose, Calif.) equipped with an Ar- ion laser ([…]). Data was collected from 10,000 cells and analyzed for fluorescence using CellQuest software.
In order to determine whether aphidicolin treatment affects cellular processes related to transgene expression, effects on DNA uptake and gene expression were studied. It has been shown previously that fluorescently labeled DNA can be formulated as lipoplexes and the uptake of lipoplexes can be measured by flow cytometry (see, Zabner, et al., J. Biol. Chem., 270:18997-19007 (1995); and Tseng, et al., Biotechnol. Bioeng., 50:548-554 (1996);). […] The rate of lipoplex uptake per cell was determined by flow cytometry. […]

[5] = system: B16 cells; experiment: Luciferase activity in i.p. tumors after i.p. INEX 324 following OncoTCS; assay type: in vivo, C57 mice; details: OncoTCS 0.5 mg/kg i.v. 24 hours before INEX 324 i.p. 20 micrograms
Procedure: […] are seeded intraperitoneally with about 100,000 B16 cells. On day 7, 12 mice are injected i.v. via the tail vein with about 0.5 mg/kg of OncoTCS (vincristine sulfate encapsulated in sphingomyelin-containing TCS) in about 200 microliters. 12 control mice are not treated with OncoTCS. 24 hours later, all mice are injected i.p. with 20 micrograms of INEX 324 (TCS containing luciferase plasmid pINEX L018) in 500 microliters. Tumors are harvested 6, 12, 24 and 48 hours later, fast frozen, and stored at −70° C. until analyzed for luciferase activity. The frozen organs are then thawed at room temperature. 600 microliters of 1× cell culture lysis buffer (Promega) is added and the samples are homogenized in a FASTPREP homogenizer for 20 sec. at speed 4.0. The samples are centifuged for 2 min. at 10,000 g, and 20 microliters of the supernatant is assayed for luciferase activity.

[6] = system: MCA 207 tumor; experiment: Combination therapy: OncoTCS then i.v. INEX 303 with pINEX-TK10 plus ganciclovir, tumor size; assay type: in vivo, C57 BL/6 mice; details: subtherapeutic pretreatment (OncoTCS 0.5 mg/kg i.v.) before INEX 303 pINEX-TK10 i.v. and ganciclovir i.p.
Procedure: C57 BL/6 mice are seeded subcutaneously with MCA 207 tumor cells. Tumor seeding is performed by standard techniques. Mice are seeded subcutaneously on the hip flank with 100,000 MCA-207 fibrosarcoma tumor cells by […] injection on day zero. The tumor cells are cultivated and prepared according to standard techniques using RPMI media with 10% Fetal Bovine Serum (see, for example, Current Protocols in Molecular Biology, Eds. Ausubel, F. M., et al.)
At 8, 16, 24, 30, 36, 42 or […] after OncoTCS treatment, the mice are injected i.v. via tail vein with INEX 303 containing pINEX-TK10 prepared as described herein (100 μg DNA with about 500 μg lipid all in about 200 μL total volume). Control mice receive HBS.
1 mg ganciclovir, which is in 200 μL PBS (approximately 50 mg/kg; commercially available from Hoffman La Roche) is administered by intraperitoneal injection 12 h and 24 h after SPLP administration.

[7] = system: MCA 207 tumor; experiment: Combination therapy: OncoTCS then i.v. INEX 324 with pINEX-IL-12, tumor size; assay type: in vivo, C57 BL/6 mice; details: subtherapeutic dose (OncoTCS 0.5 mg/kg i.v.) before INEX 324 i.v. 100 μg DNA
Procedure: C57 BL/6 mice are seeded subcutaneously with MCA 207 tumor cells. Tumor seeding is performed by standard techniques. Mice were seeded subcutaneously on the hip flank with 100,000 MCA-207 fibrosarcoma tumor cells by sub-cutaneous injection on day zero.
On days 7-10, when tumors had developed to useable sizes, mice were injected i.v. via tail vein with approximately 0.5 mg/kg of OncoTCS (200 μL).
At 8, 16, 24, 30, 36, 42 or […] after OncoTCS treatment, the mice were injected i.v. via tail vein with INEX 324 (100 μg DNA pINEX-1L-12 with about 500 μg lipid all in about 200 μL total volume). Control mice received HBS.

Compound	effect on level of luciferase gene expression [1]	decrease in luciferase gene expression ([2]; (+/+) culture arrested in G1, 24 hrs continuous exposure to DODAC:DOPE lipoplexes, vs asynchronous control)	luciferase expression vs control asynchronous culture ([2]; (+/−) culture, 24 hrs exposure to lipoplexes)	cells in the G2/M phase ([3]; 16 hrs after removal of aphidicolin block)	cells that had undergone mitotic division and progressed into the G1 phase ([3]; within 22 hrs after removal of aphidicolin block)	effect of cell cycle arrest on internalization of lipoplexes [4]	transfection of tumors [5]	tumor growth vs HSV-TK/ganciclovir system alone [6]	effect on therapeutic effect of pINEX-IL-12 in INEX 324 [7]
C[C@@]1(CO)[C@H](O)CC[C@@]2(C)[C@H]1CC[C@H]1C[C@@H]3C[C@@]12CC[C@]3(O)CO [aphidicolin, Aphidicolin]	did not significantly affect	20 fold	did not differ significantly	approximately 85%	~45%	does not affect the internalization of lipoplexes			
CC[C@]1(O)C[C@H]2CN(CCc3c([nH]c4ccccc34)[C@@](C(=O)OC)(c3cc4c(cc3OC)N(C=O)[C@H]3[C@@](O)(C(=O)OC)[C@H](OC(C)=O)[C@]5(CC)C=CCN6CC[C@]43[C@@H]65)C2)C1 [vincristine]							transfection of neoplastic sites	inhibits growth of tumors and promotes tumor regression to a significantly greater degree	greatly enhances the therapeutic effect
